The numbers were not newly measured in publication PMC6304311 (Influenza and Other Respiratory Viruses, 2018), which cites them from elsewhere.

Common to all, as to settings: cited from earlier work
Series [1] concerns seasonal influenza A(H1N1) viruses.
Series [2] addresses NA from influenza A(H3N2) virus isolates (Influenza A virus, UniProt V5P6L4).
Series [3] addresses NA from influenza B virus isolates (Influenza B virus, UniProt A0A1S5RAG6).
Series [4] has as its system NA from influenza A(H1N1)pdm09 virus isolates.
For the next series, the system named is influenza A(H3N2).
Series [5] deals with Influenza A(H1N1)pdm09 H275Y‐resistant phenotype viruses.
In series [6] the target is NA from influenza A(H1N1) virus isolates (Influenza A virus, UniProt C0LLZ0).
Setting [7] is: read-out: IC50, resistant phenotype reference virus.

pIC50: −log10 of the molar value. “And” between values parts separate entries of the source, which are not always exact repeats. Identical values can stand only once. “Also recorded” adds a separate entry of the source.

As for `CCOC(=O)C1=C[C@@H](OC(CC)CC)[C@H](NC(C)=O)[C@@H](N)C1` [oseltamivir], the “frequency of resistance globally” value in series [1] is on record as 90%. Besides, the phenotype of isolates entry in series [1] is recorded as “phenotypically resistant”. The “susceptibility phenotype of reference virus” value in series [2], in series [3], in series [4] and in series [6] was “susceptible; also recorded: resistant” in each case. In addition, the pIC50 (as a rule, the negative decadic logarithm of the IC50, by convention in mol/L) in series [2] (setting [7]) was 8.28; in series [4] (setting [7]), 7.15; in series [6] (setting [7]), 7.03. Besides, the “effect of I215V NA substitution on susceptibility” value in the series with influenza A(H3N2) is recorded as “borderline reduction in susceptibility”. Also, the “frequency of resistance to inhibition” value in the series with influenza A(H3N2) is 0.2% and 1.1%. Also, the “patients with H275Y‐resistant phenotype viruses after treatment” value in series [5] is on record as 2%.
Regarding `CC(=O)N[C@H]1[C@H]([C@H](O)[C@H](O)CO)OC(C(=O)O)=C[C@@H]1N=C(N)N` [zanamivir], the “effect of I215V NA substitution on susceptibility” value with influenza A(H3N2) is “borderline reduction in susceptibility”.
